Measurements: patent US11986482B2, “Method of promoting antitumor or anti-cancer immunity” (City University of Hong Kong, priority 2021, dated 2024)
“Also recorded” adds a separate entry of the source.

Key:
HeLa cells = test: DQ-BSA endocytic trafficking assay; type: cell-based; conditions: 1 μM, 3 h then 6 h with 10 μg/ml DQ-green BSA, flow cytometry
Description: A DQ-BSA endocytic trafficking assay screens these compounds. DQ-BSA, a self-quenching dye, is internalized into the cytoplasm by endocytosis, after which it is delivered to the lysosomes for degradation to relieve fluorescence-quenching, resulting in bright fluorescence in cells. HeLa cells are plated on 6-well plates and treated with the indicated compound for 3 h. Then, cells are replaced with Trafficking media containing 10 μg/ml DQ-green BSA with or without drugs (1 μM) and incubated at 37° C. in a 5% CO2 humidified cell culture chamber another 6 h followed by Flow cytometry analysis. […] Inventors also test whether these hit compounds can inhibit the recycling endosomal pathway by performing the fluorescent transferrin conjugates recycling assay. Iron-bound transferrin interacts with its receptor (TfR) to trigger the internalization of the iron-transferrin-TfR complex via clathrin-mediated endocytosis. Fe^3+ irons are subsequently dissociated from their ligands in the acidic endosome environment and released into the cytoplasm. […] Thus, the fluorescence intensity of fluorescent transferrin conjugates-labeled cells can reflect the recycling endocytic trafficking process. […] Cells are collected for flow cytometry analysis, and the mean fluorescence intensity of transferrin is quantified.

4T1 cells = test: T cell-mediated tumor cell killing assay; type: cell-based, mouse; conditions: 6J1 (1 µM) per FIG. 8d legend, CCK8 assay
[1] = test system: 4T1 mouse mammary carcinoma; test: Orthotopic 4T1 mammary carcinoma model in syngeneic Balb/c mice; type: in vivo; conditions: oral gavage, daily
Description: To determine whether 6J1 can promote anti-cancer immunity in vivo, 4T1 cells are orthotopically transplanted into syngeneic Balb/c mice. The mice are randomly divided into three groups (n=7 per group) and treated with either buffer or 6J1 (15 or 30 mg/kg, daily) via oral gavage. Tumor volume and body weight of mice are measured at the indicated time point. After the tumor reaches the indicated size, the mice are treated with 6J1 (via oral gavage) at different doses (15 mg/kg or 30 mg/kg) daily for 4 weeks. […] The effective dosages of 6J1 in vivo can range from about 0.1 mg/kg to about 300 mg/kg; or from about 1 mg/kg to about 200 mg/kg; or from about 3 mg/kg to about 100 mg/kg, taking into account, for example, activity and toxicity

4T1 primary tumors = test: Chemokine levels in microenvironment of 4T1 primary tumors; type: in vivo, mouse; conditions: 4T1 tumors isolated at end of experiment
Description: Inventors further measure the chemokines or cytokines in these primary tumor tissues. The tumors are isolated at the end of experiments, and the chemokine levels in the microenvironment of 4T1 primary tumors treated with the vehicle or 6J1 are determined by Flow cytometry-based quantification. In FIGS. 9a-9c, data are reported in μg/ml, standardized to the excised tumor weight (in grams); each dot represents one mouse.

B16-F10 cells = test: B16-F10 melanoma model in C57BL/6J mice; type: in vivo, mouse; conditions: 30 mg/kg, daily, oral gavage, 4 weeks
Description: Inventors also examine the anti-cancer effect of 6J1 in a melanoma xenograft mouse model, by the subcutaneous injection of B16-F10 cells in syngeneic C57BL mice. B16-F10 cells are subcutaneously injected into the flank of female C57BL/6J mice. The mice are randomly divided (n=6 per group). They are treated with either buffer or 6J1 (30 mg/kg, daily, oral gavage) after tumors reach around 5 mm for 4 weeks. After 4 weeks, the primary tumors are collected for analysis. […] In addition, a flow cytometry-based quantification of the levels of plasma membrane PD-L1 in the primary tumor is performed in FIG. 15e. […] In B16-F10 tumors, fold change of CD3+CD8+ T-cell populations, and percentage of intracellular IFN-γ in the isolated tumor-infiltrating lymphocytes (TILs) are determined by flow cytometry analysis in FIGS. 15f and 15g.

[2] = test system: HeLa, A549 and MDA-MB-231 cell lines; test: Cytotoxicity, Hochest 33342 cell number; type: cell-based; conditions: 24 h or 48 h
Description: The inventors also test the cytotoxicity of 6J1 in several cancer cell lines, HeLa, A549 and MDA-MB-231 cell lines. Cells are grown in 96-well plates in triplicate and treated with or without 6J1 at the concentrations of 0, 0.01, 0.1, 1, 10 and 100 μM indicated for 24 h or 48 h. They are then stained with propidium iodide (PI) or Hochest 33342 to measure the cell death ratio and cell number, respectively. […] Inventors also test the cytotoxicity of 6J1 in 4T1 cells. 4T1 cells are plated in 96-well plates in triplicate and treated with or without 6J1 at the concentrations of 0, 0.01, 0.1, 1, 5, 10, 20, 40, 80 and 100 μM indicated for 24 h or 48 h. The cell viability was then quantified via the MTT assay.

[3] = Subchronic toxicity in Balb/C mice, 4 weeks oral; type: in vivo, mouse; conditions: 30 mg/kg per day
Description: Last, inventors investigate the in vivo toxicity of 6J1 in mice. 6-week-old Balb/C mice are treated with […] (PEG400/Ethanol/tween80, 1:1:1) or 6J1 (30 mg/kg, per day) via oral route for 4 weeks. Clinical observations, e.g., food consumption, body weight changes, and ophthalmic exams, are performed every three days. Tissue weight index (tissue weight/body weight×100%) are measured. […] 6J1 has no effects on mouse weight gain and weights of various organs (FIGS. 18a and 18b). At the end of experiment, the blood is collected from mice in each group for AST, ALT, and ALP measurement. The mice are then sacrificed, and the major organs are isolated, examined, and subjected to H&E staining.

[4] = Repeated-dose oral gavage toxicity in rats, up to 7 days; conditions: rat, in vivo
Description: Inventors also evaluate the toxicity profile following oral gavage administration of 6J1 at dose levels of 0 (vehicle), 150, 450, and 1000 mg/kg once daily for up to 7 consecutive days to rats. Rats of the 300 mg/kg group are tested separately from other groups (showing higher initial weight than other groups), and rats of 450 and 1000 mg/kg groups are terminated on day 4 due to several clinical findings.

[5] = isolated tumor-infiltrating lymphocytes

In the case of OCCOCCN(c1ccccc1)c1nc(N/N=C/c2cccc(I)c2)nc(N2CCOCC2)n1 [Compound 6J1], the “endocytic trafficking (fluorescence intensity of DQ-BSA-labeled cells)” value (HeLa cells) is reported as “dramatically inhibit endocytic trafficking”, the “sensitivity of 4T1 cells to pre-activated T cell-mediated cytolysis” value (4T1 cells) is reported as “more sensitive to pre-activated T cell-mediated cytolysis” and the “cell surface expression of PD-L1 in the primary tumors” value ([1]; 30 mg/kg) is reported as “down-regulated”. For the same compound, the tumor growth ([1]; 30 mg/kg, 4 weeks) was “significantly decreases the tumor growth”, the “body weight of mice” value ([1]; 15 or 30 mg/kg, 4 weeks) was “does not change the body weight of mice” and the “expression of IFN-γ in CD8+ T cells” value [1, 5] was “little effect”. The “tumor-infiltrating CD8+ T cell populations” value [1, 5] was “significantly increases the tumor infiltrating CD8+ T cell populations; also recorded: significantly increases the tumor-infiltrating CD8+ T cell populations”, the “secretion of chemokines CCL2, CCL3, CCL4, CXCL9 in tumor microenvironment” value (4T1 primary tumors) was “significantly increases the secretion of some chemokines” and the “secretion of chemokines CCL5, CCL11, CCL17, CCL22, CXCL1, CXCL5, CXCL10, CXCL13 in tumor microenvironment” value (4T1 primary tumors) was “little or only subtle effects on others; also recorded: little or only subtly effects on others”. The “animal's body weight” value (B16-F10 cells) was “without affecting the animal's body weight”, the “expression of IFN-γ in tumor-infiltrating lymphocytes” value (B16-F10 cells) was “only subtly increases the expression of IFN-γ” and the “growth of B16-F10 tumors” value (B16-F10 cells) was “markedly inhibits the growth of B16-F10 tumors”. For the same compound, the “levels of PD-L1 at the cell surface of the primary tumors” value (B16-F10 cells) was “significantly decreases the levels of PD-L1 at the cell surface of the primary tumors”, the “percentage of tumor-infiltrating CD8+ T cell populations” value (B16-F10 cells) was “markedly increases the percentage of tumor-infiltrating CD8+ T cell populations” and the “cell proliferation (cell number)” value ([2]; 0.01-100 μM) was “inhibits cell proliferation in a concentration-dependent manner”. The “cell proliferation at effective concentrations” value ([2]; ≤1 μM, several cell types) was “only subtly inhibits cell proliferation”, the behavior [3] was “no signs of behavior abnormality” and the “liver function test (AST, ALT, ALP in blood)” value [3] was “no apparent changes in liver function test”. For the same compound, the mouse weight gain [3] was “no effects”, the “pathological changes in major organs (H&E staining)” value [3] was “no signs of pathological changes in major organs” and the “weights of various organs (tissue weight index)” value [3] was “no effects”. For the same compound, the “findings at 450 and 1000 mg/kg” value [4] was “severe clinical findings”, the “therapeutic window in experimental animals” value [4] was “at least 10 fold” and the “clinical signs at 300 mg/kg” value ([4]; po, 300 mg/kg) was “soft feces, hunched posture, and reduced feces”. For the same compound, the “finding at 1000 mg/kg” value ([4]; po, 1000 mg/kg) was “mortality”, the “dose levels not tolerated on repeated daily dosing” value ([4]; po, 4 days) was no less than 450 mg/kg and the “repeated daily dosing considered tolerated up to” value ([4]; po, 7 days) was “up to 300 mg/kg”.
